Experimental data from paper PMC2888050, “Cromoglycate drugs suppress eicosanoid generation in U937 cells by promoting the release of Anx-A1” (Biochemical Pharmacology, 2009).
pIC50: −log10 of the molar value.

Biological target: T1, PP2A (Bos taurus, UniProt P67774)
T1 construct: gene PPP2CA
Assay: colorimetric pNPP phosphatase assay with purified enzyme, […] min pre-incubation
Type: biochemical

T1 sequence (P67774 whole entry): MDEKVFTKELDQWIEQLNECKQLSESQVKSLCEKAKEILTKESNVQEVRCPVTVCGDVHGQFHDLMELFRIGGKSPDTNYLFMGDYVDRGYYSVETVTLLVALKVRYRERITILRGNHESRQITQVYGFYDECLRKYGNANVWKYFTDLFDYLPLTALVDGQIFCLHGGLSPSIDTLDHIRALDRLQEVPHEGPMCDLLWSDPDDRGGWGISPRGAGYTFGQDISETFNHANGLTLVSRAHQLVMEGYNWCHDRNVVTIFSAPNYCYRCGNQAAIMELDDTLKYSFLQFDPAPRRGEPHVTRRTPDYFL

Structure (SMILES) | pIC50
CCCc1c2oc(C(=O)O)cc(=O)c2cc2c(=O)cc(C(=O)O)n(CC)c12 [nedocromil] | ~9.19
O=C(O)c1cc(=O)c2c(OCC(O)COc3cccc4oc(C(=O)O)cc(=O)c34)cccc2o1 [cromoglycate] | ~8.77
